The values that follow are results of earlier work, collected in patent US9636304B2, “Pharmaceutical composition comprising citrate and bicarbonate salts, and use thereof for treating cystinuria” (ADVICENNE, priority 2010, dated 2017).

For the data set the following is noted: prior art, oral.

Take `O=C([O-])CC(O)(CC(=O)[O-])C(=O)[O-].[K+].[K+].[K+]` [potassium citrate]: the gastric tolerance result is given as “mediocre”.
